Results taken from patent US11000033B2, “Ketone or oxime compound, and herbicide” (NISSAN CHEMICAL CORPORATION, priority 2014, dated 2021).

Legend:
Type in all cases: in vivo
transplanted rice plant = test: Test Example 1: effect on crop, application before weed generation in submerged conditions (symbol a); conditions: application herbicide amount 320 g/ha
Method in brief: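 Rice at 2.5 leaf stage transplanted into submerged soil (4 cm depth) sown with three weed species; herbicide applied before weed emergence.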

Scirpus juncoides = test: Test Example 2: herbicidal activity, application during weed generation in submerged conditions (symbol B); conditions: Table 23; application herbicide amount 320 g/ha; grade 0-5 by criteria of Test Example 1
Method in brief: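 Each pot contained alluvial soil under 4 cm of water with seeds of all three weeds sown together. Following growth at 25° C. to 30° C. to the one- to two-leaf stage, the floodwater received diluted emulsion at a predetermined amount; visual assessment followed at 3 weeks.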

Digitaria ciliaris = test: Test Example 4: herbicidal effect by soil treatment (symbol F)
Method in brief: (§1)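 Seeds were sown in sterilized diluvial soil, covered with about 1.5 cm of soil, and the soil surface was sprayed with a water-diluted emulsion of the compound at a predetermined rate. Plants grew in a greenhouse at 25° C. to 30° C.; effects were scored visually 3 weeks after application.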

Alopecurus myosuroides [1] = test: Test Example 4: herbicidal effect by soil treatment (symbol J)
Method in brief: as §1

Veronica persica [2] = test: Test Example 4: herbicidal effect by soil treatment (symbol R)
Method in brief: as §1

corn [3] = test: Test Example 4: effect on crop by soil treatment (symbol c); conditions: for c: corn, effect on crop grade: application herbicide amount 320 g/ha
Method in brief: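 Plants are raised in a greenhouse (25° C. to 30° C.) from spot-sown seed, which sits under about 1.5 cm of sterilized diluvial soil in a box shared with weed species.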

rice = test: Test Example 4: effect on crop by soil treatment (symbol b); conditions: for b: directly sowed rice plant, effect on crop grade: application herbicide amount 320 g/ha
Method in brief: (§2)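 Diluvial soil (sterilized) in boxes; seeds placed spot-wise alongside weed species; ~1.5 cm covering soil. Greenhouse, 25–30° C.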

rapeseed = test: Test Example 4: effect on crop by soil treatment (symbol g); conditions: for g: rapeseed, effect on crop grade: application herbicide amount 320 g/ha
Method in brief: as §2

Alopecurus myosuroides [4] = test: Test Example 5: herbicidal effect by foliage application, plastic box (symbol J); conditions: 320 g/ha, 3 weeks after application
Method in brief: (§3)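 Herbicide, formulated as an emulsion and diluted in water, is sprayed onto the aerial parts of 14-day seedlings. These were grown at 25° C. to 30° C. in sterilized diluvial soil; effects are graded after 3 weeks.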

Lolium multiflorum Lam. = test: Test Example 5: herbicidal effect by foliage application, plastic box (symbol K); conditions: 320 g/ha, 3 weeks after application
Method in brief: as §3

Veronica persica [5] = test: Test Example 5: herbicidal effect by foliage application, plastic box (symbol R); conditions: 320 g/ha, 3 weeks after application
Method in brief: as §3

corn [6] = test: Test Example 5: effect on crop by foliage application, plastic box (symbol c); conditions: 320 g/ha, 3 weeks after application
Method in brief: (§4)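 A greenhouse held between 25° C. and 30° C. was used to grow plants sown spot-wise, beneath ~1.5 cm of soil, in boxes of sterilized diluvial soil.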

wheat = test: Test Example 5: effect on crop by foliage application, plastic box (symbol e); conditions: 320 g/ha, 3 weeks after application
Method in brief: as §4

beet = test: Test Example 5: effect on crop by foliage application, plastic box (symbol f); conditions: 320 g/ha, 3 weeks after application
Method in brief: as §4

[7] = application herbicide amount 320 g/ha

| Structure (SMILES) | Effect grade on crop, a: transplanted rice plant (transplanted rice plant) | Herbicidal effect grade, B: Scirpus juncoides (Scirpus juncoides) | F: Digitaria ciliaris, herbicidal effect grade (Digitaria ciliaris; [7]) | J: Alopecurus myosuroides, herbicidal effect grade (Alopecurus myosuroides [1]; [7]) | R: Veronica persica, herbicidal effect grade (Veronica persica [2]; [7]) | c: corn, effect on crop grade (corn [3]) | b: directly sowed rice plant, effect on crop grade (rice) | g: rapeseed, effect on crop grade (rapeseed) | J: Alopecurus myosuroides, herbicidal effect grade (Alopecurus myosuroides [4]) | K: Lolium multiflorum Lam., herbicidal effect grade (Lolium multiflorum Lam.) | R: Veronica persica, herbicidal effect grade (Veronica persica [5]) | c: corn, effect on crop grade (corn [6]) | e: wheat, effect on crop grade (wheat) | f: beet, effect on crop grade (beet) | F: Digitaria ciliaris, herbicidal effect grade (Digitaria ciliaris; 320 g/ha) | J: Alopecurus myosuroides, herbicidal effect grade (Alopecurus myosuroides [1]; 320 g/ha) | R: Veronica persica, herbicidal effect grade (Veronica persica [2]; 320 g/ha) | c: corn, effect grade on crop (corn [3]; 320 g/ha) | b: directly sowed rice plant, effect grade on crop (rice; 320 g/ha) | g: rapeseed, effect grade on crop (rapeseed; 320 g/ha) |
| --- | --- | --- | --- | --- | --- | --- | --- | --- | --- | --- | --- | --- | --- | --- | --- | --- | --- | --- | --- | --- |
| CCCC(=O)C(C(=O)OC)C1CC(O)=C(c2c(C)cc(C)cc2C)C1=O (stereo not shown) [2-020] | 3 (Herbicidal ratio of 40% or higher and lower than 70%) | 0 (Herbicidal ratio of 5% or lower (almost no effect)) | 5 (Herbicidal ratio of 90% or more (almost completely withered)) | 0 (Herbicidal ratio of 5% or lower (almost no effect)) | 0 (Herbicidal ratio of 5% or lower (almost no effect)) | 3 (Herbicidal ratio of 40% or higher and lower than 70%) | 5 (Herbicidal ratio of 90% or more (almost completely withered)) | 0 (Herbicidal ratio of 5% or lower (almost no effect)) | 4 (Herbicidal ratio of 70% or higher and lower than 90%) | 5 (Herbicidal ratio of 90% or more (almost completely withered)) | 0 (Herbicidal ratio of 5% or lower (almost no effect)) | 1 (Herbicidal ratio of 5% or higher and lower than 20%) | 0 (Herbicidal ratio of 5% or lower (almost no effect)) | 0 (Herbicidal ratio of 5% or lower (almost no effect)) |  |  |  |  |  |  |
| CCCC(=O)CC1CC(O)=C(c2c(C)cc(C)cc2C)C1=O (stereo not shown) [2-021] | 5 (Herbicidal ratio of 90% or more (almost completely withered)) | 2 (Herbicidal ratio of 20% or higher and lower than 40%) | 5 (Herbicidal ratio of 90% or more (almost completely withered)) | 5 (Herbicidal ratio of 90% or more (almost completely withered)) | 0 (Herbicidal ratio of 5% or lower (almost no effect)) | 1 (Herbicidal ratio of 5% or higher and lower than 20%) | 5 (Herbicidal ratio of 90% or more (almost completely withered)) | 1 (Herbicidal ratio of 5% or higher and lower than 20%) | 5 (Herbicidal ratio of 90% or more (almost completely withered)) | 5 (Herbicidal ratio of 90% or more (almost completely withered)) | 0 (Herbicidal ratio of 5% or lower (almost no effect)) | 3 (Herbicidal ratio of 40% or higher and lower than 70%) | 0 (Herbicidal ratio of 5% or lower (almost no effect)) | 0 (Herbicidal ratio of 5% or lower (almost no effect)) |  |  |  |  |  |  |
| COC(=O)C(C(=O)C1CC1)C1CC(O)=C(c2c(C)cc(C)cc2C)C1=O (stereo not shown) [2-014] | 1 (Herbicidal ratio of 5% or higher and lower than 20%) | 3 (Herbicidal ratio of 40% or higher and lower than 70%) | 5 (Herbicidal ratio of 90% or more (almost completely withered)) | 2 (Herbicidal ratio of 20% or higher and lower than 40%) | 0 (Herbicidal ratio of 5% or lower (almost no effect)) | 3 (Herbicidal ratio of 40% or higher and lower than 70%) | 5 (Herbicidal ratio of 90% or more (almost completely withered)) | 0 (Herbicidal ratio of 5% or lower (almost no effect)) | 5 (Herbicidal ratio of 90% or more (almost completely withered)) | 5 (Herbicidal ratio of 90% or more (almost completely withered)) | 3 (Herbicidal ratio of 40% or higher and lower than 70%) | 3 (Herbicidal ratio of 40% or higher and lower than 70%) | 0 (Herbicidal ratio of 5% or lower (almost no effect)) | 0 (Herbicidal ratio of 5% or lower (almost no effect)) |  |  |  |  |  |  |
| CCOC(=O)C(CC)(C(C)=O)C1CC(O)=C(c2c(C)cc(C)cc2C)C1=O (stereo not shown) [2-012] | 0 (Herbicidal ratio of 5% or lower (almost no effect)) | 0 (Herbicidal ratio of 5% or lower (almost no effect)) | 0 (Herbicidal ratio of 5% or lower (almost no effect)) | 0 (Herbicidal ratio of 5% or lower (almost no effect)) | 0 (Herbicidal ratio of 5% or lower (almost no effect)) | 0 (Herbicidal ratio of 5% or lower (almost no effect)) | 0 (Herbicidal ratio of 5% or lower (almost no effect)) | 0 (Herbicidal ratio of 5% or lower (almost no effect)) | 1 (Herbicidal ratio of 5% or higher and lower than 20%) | 3 (Herbicidal ratio of 40% or higher and lower than 70%) | 0 (Herbicidal ratio of 5% or lower (almost no effect)) | 0 (Herbicidal ratio of 5% or lower (almost no effect)) | 0 (Herbicidal ratio of 5% or lower (almost no effect)) | 0 (Herbicidal ratio of 5% or lower (almost no effect)) |  |  |  |  |  |  |
| CON=C(C)CC1CC(OS(=O)(=O)c2ccc(C)cc2)=C(c2c(C)cc(C)cc2C)C1=O (stereo not shown) [1-161] | 4 (Herbicidal ratio of 70% or higher and lower than 90%) | 4 (Herbicidal ratio of 70% or higher and lower than 90%) |  |  |  |  |  |  | 5 (Herbicidal ratio of 90% or more (almost completely withered)) | 5 (Herbicidal ratio of 90% or more (almost completely withered)) | 0 (Herbicidal ratio of 5% or lower (almost no effect)) | 1 (Herbicidal ratio of 5% or higher and lower than 20%) | 2 (Herbicidal ratio of 20% or higher and lower than 40%) | 0 (Herbicidal ratio of 5% or lower (almost no effect)) | 5 (Herbicidal ratio of 90% or more (almost completely withered)) | 3 (Herbicidal ratio of 40% or higher and lower than 70%) | 0 (Herbicidal ratio of 5% or lower (almost no effect)) | 0 (Herbicidal ratio of 5% or lower (almost no effect)) | 3 (Herbicidal ratio of 40% or higher and lower than 70%) | 2 (Herbicidal ratio of 20% or higher and lower than 40%) |
